Values after ≈ are worked out from the molar mass of the structure shown.
Experiments:
[1] = Metabolic stability in human liver microsomes assessed as parent compound remaining at 1 uM preincubated for 5 mins followed by NADPH addition measured after 30 mins by LC-MS/MS analysis; format: ADME, microsome; conditions: read-out: Stability
[2] = Kinetic solubility of the compound in phosphate buffer at pH 7.4 at 0.0098 to 10 mM by turbidometric method; format: physicochemical; conditions: read-out: Kinetic_solubility
HepG2 = assay: Cytotoxicity against human HepG2 cells assessed as reduction in cell viability after 24 hrs by MTT assay; format: cell-based; conditions: HepG2, 24 h
[3] = Permeability from basolateral to apical side in human Caco2 cells at 5 uM after 90 mins; format: ADME, cell-based; conditions: Caco-2, read-out: permeability
[4] = Permeability from apical to basolateral side in human Caco2 cells at 5 uM after 90 mins; format: ADME, cell-based; conditions: Caco-2, read-out: permeability
[5] = target: Amyloid-beta precursor protein (Homo sapiens, UniProt P05067); assay: Displacement of [125I]IMPY from fibrillar amyloid beta 42 (unknown origin) after 3 hrs
[6] = target: T1, Proteinase-activated receptor 2 (Homo sapiens, UniProt P55085); assay: Antagonist activity at PAR2 in human 1321N1 cells assessed as inhibition of trypsin-induced intracellular calcium flux pretreated for 60 mins followed by trypsin addition by Fluo-8 NW dye based FLIPR assay; format: functional, cell-based
T1 sequence (P55085 whole entry): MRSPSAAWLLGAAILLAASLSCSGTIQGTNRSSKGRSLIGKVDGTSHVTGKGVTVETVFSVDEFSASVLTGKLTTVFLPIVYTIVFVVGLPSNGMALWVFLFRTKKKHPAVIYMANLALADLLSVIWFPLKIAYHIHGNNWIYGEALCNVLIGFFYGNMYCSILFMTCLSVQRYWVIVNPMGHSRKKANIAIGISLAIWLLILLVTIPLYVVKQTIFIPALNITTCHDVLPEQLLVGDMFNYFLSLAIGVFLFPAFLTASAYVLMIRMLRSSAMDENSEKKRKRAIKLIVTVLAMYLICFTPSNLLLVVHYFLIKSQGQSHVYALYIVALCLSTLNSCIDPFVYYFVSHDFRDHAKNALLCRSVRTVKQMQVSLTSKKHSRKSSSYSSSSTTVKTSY

[7] = target: Proteinase-activated receptor 2 (Homo sapiens) (UniProt P55085); assay: Antagonist activity at PAR2 in human HEK293 cells assessed as inhibition of trypsin-induced intracellular calcium flux at 30 uM pretreated for 15 mins followed by trypsin addition by Fluo-8 dye based fluorescence assay relative to control; format: functional, cell-based
[8] = target: Proteinase-activated receptor 2 (Homo sapiens) (UniProt P55085); assay: Antagonist activity at PAR2 in human HEK293 cells assessed as trypsin-induced intracellular calcium flux at 3 uM pretreated for 15 mins followed by trypsin addition by Fluo-8 dye based fluorescence assay relative to control; format: functional, cell-based; parameters: scale not given: the % may be the effect or the level left
[9] = target: T1, Proteinase-activated receptor 2; assay: Antagonist activity at PAR2 in human HEK293 cells assessed as inhibition of trypsin-induced intracellular calcium flux pretreated for 15 mins followed by trypsin addition by Fluo-8 dye based fluorescence assay; format: functional, cell-based
[10] = target: Proteinase-activated receptor 2 (Homo sapiens) (UniProt P55085); assay: Antagonist activity at PAR2 in human HEK293 cells assessed as trypsin-induced intracellular calcium flux at 0.1 uM pretreated for 15 mins followed by trypsin addition by Fluo-8 dye based fluorescence assay relative to control; format: functional, cell-based; parameters: scale not given: the % may be the effect or the level left
[11] = target: Proteinase-activated receptor 2 (Homo sapiens) (UniProt P55085); assay: Antagonist activity at PAR2 in human HEK293 cells assessed as trypsin-induced intracellular calcium flux at 10 uM pretreated for 15 mins followed by trypsin addition by Fluo-8 dye based fluorescence assay relative to control; format: functional, cell-based; parameters: scale not given: the % may be the effect or the level left
[12] = target: Proteinase-activated receptor 2 (Homo sapiens) (UniProt P55085); assay: Antagonist activity at PAR2 in human HEK293 cells assessed as trypsin-induced intracellular calcium flux at 0.01 uM pretreated for 15 mins followed by trypsin addition by Fluo-8 dye based fluorescence assay relative to control; format: functional, cell-based; parameters: scale not given: the % may be the effect or the level left
[13] = target: Proteinase-activated receptor 2 (Homo sapiens) (UniProt P55085); assay: Antagonist activity at PAR2 in human HEK293 cells assessed as trypsin-induced intracellular calcium flux at 1 uM pretreated for 15 mins followed by trypsin addition by Fluo-8 dye based fluorescence assay relative to control; format: functional, cell-based; parameters: scale not given: the % may be the effect or the level left
[14] = target: Proteinase-activated receptor 2 (Homo sapiens) (UniProt P55085); assay: Antagonist activity at PAR2 in human HEK293 cells assessed as trypsin-induced intracellular calcium flux at 100 uM pretreated for 15 mins followed by trypsin addition by Fluo-8 dye based fluorescence assay relative to control; format: functional, cell-based; parameters: scale not given: the % may be the effect or the level left
[15] = target: Proteinase-activated receptor 2 (Homo sapiens) (UniProt P55085); assay: Antagonist activity at PAR2 in human HEK293 cells assessed as trypsin-induced intracellular calcium flux at 0.3 uM pretreated for 15 mins followed by trypsin addition by Fluo-8 dye based fluorescence assay relative to control; format: functional, cell-based; parameters: scale not given: the % may be the effect or the level left
[16] = target: Proteinase-activated receptor 2 (Homo sapiens) (UniProt P55085); assay: Antagonist activity at PAR2 in human HEK293 cells assessed as inhibition of trypsin-induced intracellular calcium flux at 10 uM pretreated for 15 mins followed by trypsin addition by Fluo-8 dye based fluorescence assay relative to control; format: functional, cell-based

Chain of Amyloid-beta precursor protein (P05067 whole entry): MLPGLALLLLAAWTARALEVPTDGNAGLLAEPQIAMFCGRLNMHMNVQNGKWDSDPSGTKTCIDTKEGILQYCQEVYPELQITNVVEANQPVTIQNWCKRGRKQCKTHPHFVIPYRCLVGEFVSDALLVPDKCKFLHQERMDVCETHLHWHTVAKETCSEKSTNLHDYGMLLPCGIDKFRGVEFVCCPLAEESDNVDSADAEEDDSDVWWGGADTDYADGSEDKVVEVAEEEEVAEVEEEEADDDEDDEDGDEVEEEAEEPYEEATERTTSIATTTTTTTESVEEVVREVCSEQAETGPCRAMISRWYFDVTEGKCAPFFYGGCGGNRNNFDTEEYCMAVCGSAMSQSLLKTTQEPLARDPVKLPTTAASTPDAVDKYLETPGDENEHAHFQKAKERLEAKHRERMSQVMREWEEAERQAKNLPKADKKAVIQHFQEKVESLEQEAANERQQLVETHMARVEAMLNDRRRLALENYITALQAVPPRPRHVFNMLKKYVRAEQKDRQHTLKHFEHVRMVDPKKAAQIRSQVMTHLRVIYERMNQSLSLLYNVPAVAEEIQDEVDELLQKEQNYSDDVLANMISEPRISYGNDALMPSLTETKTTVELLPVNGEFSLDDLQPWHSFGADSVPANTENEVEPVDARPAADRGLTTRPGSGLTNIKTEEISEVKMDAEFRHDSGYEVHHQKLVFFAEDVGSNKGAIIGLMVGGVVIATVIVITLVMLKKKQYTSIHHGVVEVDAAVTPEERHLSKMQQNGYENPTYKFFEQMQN

remaining at 0.5 h, 1 µM [1] [%]	solubility kinetic [2] [µM]	Compound	IC50 (HepG2) [µM]	further results
< 20	25 (≈ 8.84 µg/mL)	COc1cccc(CC[C@H](O)C[C@@H](O)c2cc(-c3ccccc3)on2)c1	> 100	–
33	25 (≈ 8.84 µg/mL)	COc1ccc(CC[C@H](O)C[C@H](O)c2cc(-c3ccccc3)on2)cc1	> 100	–
32	25 (≈ 8.84 µg/mL)	COc1ccc(CC[C@H](O)C[C@@H](O)c2cc(-c3ccccc3)on2)cc1	> 100	–
73	25 (≈ 8.53 µg/mL)	O[C@@H](CCc1ccc(F)cc1)C[C@@H](O)c1cc(-c2ccccc2)on1	> 100	Papp B→A at 1.5 h, 5 µM [3]: 5 ×10⁻⁶ cm/s; inhibition [7]: 70%; Activity [8]: 100%; Activity [11]: 65 to 70%; Papp A→B at 1.5 h, 5 µM [4]: 6.3 ×10⁻⁶ cm/s; Activity [13]: 100%

Further lines, the molecule ahead of its results:

Compound	remaining at 0.5 h, 1 µM [1] [%]	solubility kinetic [2] [µM]	IC50 (HepG2) [µM]	further results
COc1cc(/C=C/C(=O)CC(=O)/C=C/c2ccc(O)c(OC)c2)ccc1O [CURCUMIN]	21	3 (≈ 1.11 µg/mL)	10	Papp B→A at 1.5 h, 5 µM [3]: < 0.5 ×10⁻⁶ cm/s; Papp A→B at 1.5 h, 5 µM [4]: < 0.5 ×10⁻⁶ cm/s
COc1ccc(-c2cc([C@@H](O)C[C@@H](O)CCc3ccc(Cl)cc3)no2)cc1	< 20	12 (≈ 4.65 µg/mL)	> 100	–
COc1cc(/C=C/c2cc(/C=C/c3ccc(O)c(OC)c3)on2)ccc1O	–	–	–	IC50 [5]: 0.138 µM
C[C@@H](C1CCCCC1)n1c(-c2cc3c(cc2Br)OCO3)nc2cc(C(=O)Nc3ccc(C#N)cc3)ccc21	–	–	–	IC50 [6]: 6.6 µM
COc1ccc(CC[C@H](O)C[C@H](O)c2cc(-c3ccc(OC)cc3)on2)cc1	< 20	12 (≈ 4.6 µg/mL)	> 100	–
O[C@@H](CCc1ccc(F)cc1)C[C@H](O)c1cc(-c2ccccc2)on1	84	25 (≈ 8.53 µg/mL)	> 100	Papp B→A at 1.5 h, 5 µM [3]: 5.8 ×10⁻⁶ cm/s; inhibition [7]: 80%; Activity [8]: 60 to 65%; IC50 [9]: 6 µM; Activity [10]: 90 to 95%; Activity [11]: 43 to 48%; Activity [12]: 95 to 100%; Papp A→B at 1.5 h, 5 µM [4]: 7.4 ×10⁻⁶ cm/s; Activity [13]: 74 to 78%; Activity [14]: 15 to 20%; Activity [15]: 80 to 85%
CC[C@H](C)[C@H](NC(=O)[C@H](CC1CCCCC1)NC(=O)c1ccno1)C(=O)N1CCC2(CCc3ccccc32)CC1	–	–	–	inhibition [16]: 42%
CCCc1cc(F)ccc1[C@H](O)c1ncc[nH]1	–	–	–	IC50 [6]: 4.2 µM

— ChEMBL document CHEMBL4118211, “Isoxazole-tethered diarylheptanoid analogs: Discovery of a new drug-like PAR2 antagonist” (Bioorg Med Chem Lett, 2018)
